Earlier results, collected in paper PMC6311893, “Computational prediction of plasma protein binding of cyclic peptides from small molecule experimental data using sparse modeling techniques” (BMC Bioinformatics, 2018).

System: plasma protein
Settings: fraction bound to plasma protein; small molecule dataset, sheet 1-SM (Set Dte = test, Dtr = training); ref Ingle et al.; cited from earlier work
For CCCCCN(C)CCC(O)(P(=O)(O)O)P(=O)(O)O [Ibandronic Acid (Ibandronate)], the “PPB (fb)” value is listed as 0.85.
For CC(=O)[C@]1(O)Cc2c(O)c3c(c(O)c2[C@@H](O[C@H]2C[C@H](N)[C@H](O)[C@H](C)O2)C1)C(=O)c1ccccc1C3=O [Idarubicin], the “PPB (fb)” value is given as 0.95.
In the case of CNC(=O)c1c(I)c(NC(C)=O)c(I)c(C(=O)O)c1I [Iothalamic acid (Iothalamate)], the “PPB (fb)” value is given as 0.02.
For CCc1c2c(nc3ccc(OC(=O)N4CCC(N5CCCCC5)CC4)cc13)-c1cc3c(c(=O)n1C2)COC(=O)[C@]3(O)CC [Irinotecan], the “PPB (fb)” value is given as 0.57.
In the case of CC(C)Cc1ccc(C(C)C(=O)NC(C)C(=O)O)cc1 (stereo not drawn) [JMC_09], the “PPB (fb)” value is listed as 0.96.
In the case of N=C(N)c1ccc(C(=O)N[C@@H](Cc2ccc(O)cc2)C(=O)N2CCC(OCC(=O)O)CC2)cc1 [Lamifiban], the “PPB (fb)” value is listed as 0.06.
For CNCCCC12CCC(c3ccccc31)c1ccccc12 [Maprotiline], the “PPB (fb)” value is given as 0.89.

Same assay, conditions: fraction bound to plasma protein; small molecule dataset, sheet 1-SM, Set Dtr; ref Ingle et al.; cited from earlier work
For CN1C2CCCC1CC(NC(=O)c1nn(C)c3ccccc13)C2 (stereo not drawn) [Granisetron], the “PPB (fb)” value is given as 0.65.
For N=C(N)NC(=O)Cc1c(Cl)cccc1Cl [Guanfacine], the “PPB (fb)” value is listed as 0.72.
For O=C(CCCN1CCC(O)(c2ccc(Cl)cc2)CC1)c1ccc(F)cc1 [Haloperidol], the “PPB (fb)” value is given as 0.92.
In the case of NNc1nncc2ccccc12 [Hydralazine], the “PPB (fb)” value is listed as 0.87.
In the case of C[C@]12CCC(=O)C=C1CC[C@@H]1[C@@H]2[C@@H](O)C[C@@]2(C)[C@H]1CC[C@]2(O)C(=O)CO [Hydrocortisone], the “PPB (fb)” value is listed as 0.8.
For CCN(CCO)CCCC(C)Nc1ccnc2cc(Cl)ccc12 (stereo not drawn) [Hydroxychloroquine], the “PPB (fb)” value is given as 0.46.
In the case of CN(C)CCCN1c2ccccc2CCc2cc(O)ccc21 [Hydroxyimipramine__ 2-], the “PPB (fb)” value is given as 0.64.
For CCCCCCCN(CC)CCCC(O)c1ccc(NS(C)(=O)=O)cc1 (stereo not drawn) [Ibutilide], the “PPB (fb)” value is given as 0.4.
In the case of CN(C)CCCN1c2ccccc2CCc2ccccc21 [Imipramine], the “PPB (fb)” value is given as 0.9.
In the case of COc1ccc2c(c1)c(CC(=O)O)c(C)n2C(=O)c1ccc(Cl)cc1 [Indomethacin], the “PPB (fb)” value is listed as 0.97.
In the case of O=C(NC1CCN(CCc2c[nH]c3ccccc23)CC1)c1ccccc1 [Indoramin], the “PPB (fb)” value is listed as 0.83.
In the case of CC(=O)N(CC(O)CO)c1c(I)c(C(=O)NCC(O)CO)c(I)c(C(=O)NCC(O)CO)c1I (stereo not drawn) [Iohexol], the “PPB (fb)” value is given as 0.02.
In the case of C[C@H](O)C(=O)Nc1c(I)c(C(=O)NC(CO)CO)c(I)c(C(=O)NC(CO)CO)c1I [Iopamidol], the “PPB (fb)” value is listed as 0.
For COCC(=O)Nc1c(I)c(C(=O)NCC(O)CO)c(I)c(C(=O)N(C)CC(O)CO)c1I (stereo not drawn) [Iopromide], the “PPB (fb)” value is listed as 0.01.
For CCCCC1=NC2(CCCC2)C(=O)N1Cc1ccc(-c2ccccc2-c2nnn[nH]2)cc1 [Irbesartan], the “PPB (fb)” value is given as 0.9.
For CN[C@@H]1[C@@H](O)[C@@H](O[C@@H]2[C@@H](O)[C@H](O[C@H]3O[C@H](CN)[C@@H](O)[C@H](O)[C@H]3O)[C@@H](N)C[C@H]2NC(=O)[C@@H](O)CN)OC[C@]1(C)O [Isepamicin], the “PPB (fb)” value is given as 0.05.
In the case of NNC(=O)c1ccncc1 [Isoniazid], the “PPB (fb)” value is listed as 0.01.
For O=C(c1ccc(F)cc1)C1CCN(CCn2c(=O)[nH]c3ccccc3c2=O)CC1 [Ketanserin], the “PPB (fb)” value is listed as 0.95.
For O=C(c1ccccc1)c1ccc2n1CCC2C(=O)O (stereo not drawn) [Ketorolac], the “PPB (fb)” value is given as 0.99.
In the case of CC(CCc1ccccc1)NCC(O)c1ccc(O)c(C(N)=O)c1 (stereo not drawn) [Labetalol], the “PPB (fb)” value is given as 0.5.
For N[C@@H](Cc1ccc(O)c(O)c1)C(=O)O [Levodopa], the “PPB (fb)” value is listed as 0.12.
In the case of C#C[C@]1(O)CC[C@H]2[C@@H]3CCC4=CC(=O)CC[C@@H]4[C@H]3CC[C@@]21CC [Levonorgestrel], the “PPB (fb)” value is given as 0.975.
In the case of C[C@@H]1CC(=O)NN=C1c1ccc(NN=C(C#N)C#N)cc1 [Levosimendan], the “PPB (fb)” value is given as 0.98.
In the case of CCC[C@@H]1C[C@@H](C(=O)N[C@@H]([C@H]2O[C@H](SC)[C@H](O)[C@@H](O)[C@H]2O)[C@@H](C)O)N(C)C1 [Lincomycin], the “PPB (fb)” value is listed as 0.76.
For CC(=O)NC[C@H]1CN(c2ccc(N3CCOCC3)c(F)c2)C(=O)O1 [Linezolid], the “PPB (fb)” value is listed as 0.31.
For NCCCC[C@H](N[C@@H](CCc1ccccc1)C(=O)O)C(=O)N1CCC[C@H]1C(=O)O [Lisinopril], the “PPB (fb)” value is given as 0.05.
In the case of CCCCc1nc(Cl)c(CO)n1Cc1ccc(-c2ccccc2-c2nn[nH]n2)cc1 [Losartan], the “PPB (fb)” value is listed as 0.99.
For COC(=O)Nc1nc2ccc(C(=O)c3ccccc3)cc2[nH]1 [Mebendazole], the “PPB (fb)” value is listed as 0.93.
In the case of N=C(N)c1ccc(CNC(=O)[C@@H]2CCN2C(=O)[C@H](NCC(=O)O)C2CCCCC2)cc1 [Melagatran], the “PPB (fb)” value is given as 0.07.

Same assay, conditions: fraction bound to plasma protein; small molecule dataset, sheet 1-SM; ref Ingle et al.; cited from earlier work
For CC1OC(OC2CC(O)(C(C)O)Cc3c(O)c4c(c(O)c32)C(=O)c2ccccc2C4=O)CC(N)C1O (stereo not drawn) [Idarubicinol], the “PPB (fb)” value is listed as 0.94.
In the case of C=C(CC(=O)c1ccc(-c2ccccc2Cl)cc1)C(=O)O [Itanoxone], the “PPB (fb)” value is given as 0.98.
For CC(C(N)=O)c1ccc(OS(=O)(=O)C(F)(F)F)cc1 (stereo not drawn) [JMC_03], the “PPB (fb)” value is listed as 0.92.
For CC(C(=O)NCCN1CCCC1)c1ccc(OS(=O)(=O)C(F)(F)F)cc1 (stereo not drawn) [JMC_04], the “PPB (fb)” value is listed as 0.7.
For CC(C(=O)NCCCN1CCCC1)c1ccc(OS(=O)(=O)C(F)(F)F)cc1 (stereo not drawn) [JMC_05], the “PPB (fb)” value is listed as 0.62.
For CC(C)Cc1ccc(C(C)C(=O)NCCCN2CCCC2)cc1 (stereo not drawn) [JMC_06], the “PPB (fb)” value is listed as 0.85.
In the case of CC(C)Cc1ccc(C(C)C(=O)NCCCN(C)C)cc1 (stereo not drawn) [JMC_07], the “PPB (fb)” value is given as 0.75.
For CC(C)Cc1ccc(C(C)C(=O)NCCOCCO)cc1 (stereo not drawn) [JMC_08], the “PPB (fb)” value is listed as 0.83.
In the case of CC(Cc1ccc(C(C)C(=O)NS(C)(=O)=O)cc1)C(=O)O (stereo not drawn) [JMC_10], the “PPB (fb)” value is given as 0.7.

Same assay, conditions: human, plasma; cited from earlier work
In the case of CCNC(=O)[C@@H]1CCCN1C(=O)[C@H](CCCNC(=N)N)NC(=O)[C@H](CC(C)C)NC(=O)[C@@H](CC(C)C)NC(=O)[C@H](Cc1ccc(O)cc1)NC(=O)[C@H](CO)NC(=O)[C@H](Cc1c[nH]c2ccccc12)NC(=O)[C@H](Cc1c[nH]cn1)NC(=O)[C@@H]1CCC(=O)N1 [Leuprolide], the “PPB (fb)” value is given as 0.46.

Same assay, conditions: plasma; cited from earlier work
For CN1C(=O)NC(=O)C(C)(C2=CCCCC2)C1=O (stereo not drawn) [Hexobarbital], the “PPB (fb)” value is given as 0.47.
In the case of CCC1(O)CN2CCC1CC2C(O)c1ccnc2ccc(OC)cc12 (stereo not drawn) [Hydroxydihydroquinidine], the “PPB (fb)” value is given as 0.53.
For O=P1(NCCCl)OCCCN1CCCl (stereo not drawn) [Ifosfamide], the “PPB (fb)” value is listed as 0.
For O=[N+]([O-])O[C@H]1CO[C@H]2[C@@H]1OC[C@H]2O[N+](=O)[O-] [Isosorbide Dinitrate], the “PPB (fb)” value is listed as 0.29.
In the case of CNC1(c2ccccc2Cl)CCCCC1=O (stereo not drawn) [Ketamine], the “PPB (fb)” value is listed as 0.44.
For O=C([O-])[O-].[Li+].[Li+] [Lithium Carbonate], the “PPB (fb)” value is listed as 0.
For O=C1Nc2ccc(Cl)cc2C(c2ccccc2Cl)=NC1O (stereo not drawn) [Lorazepam], the “PPB (fb)” value is given as 0.91.
For CN1C(=O)C(O)N=C(c2ccccc2Cl)c2cc(Cl)ccc21 (stereo not drawn) [Lormetazepam], the “PPB (fb)” value is given as 0.86.
